Experiments:
LNCaP cells = assay: Nuclear PARP cleavage assay by confocal microscopy; format: cell-based, human
Excerpt: (§1) Irradiation for in vitro studies: Radiation was delivered using the Small Animal Radiation Research Platform (SARRP) at DFCI, a gantry mounted x-ray tube and flat panel imager capable of fixed field irradiation, rotation therapy and cone-beam CT (CBCT) imaging. […] Here the radiation doses were optimized to 2 Gy (5.6 Gy/min for 22 sec) and 4 Gy (5.5 Gy/min for 44 sec) to irradiate the cells, which were pretreated with Olaparib/NanoOlaparib for 24 hrs.
(§2) Nuclear localization and early DNA damage determination: To assess the early DNA Damage and PARP inhibition pathway damage, including PARP, PARylation, PARP cleavage and yH2AX in the cell lines to various treatment conditions, the prostate cancer cell lines were seeded at 100,000 cells, exposed to 20 μM Olaparib/NanoOlaparib, with and without radiation for both immunoflorescence (confocal) and western blotting assays. PARP-1 is a 116 kDa nuclear protein which is strongly activated by DNA strand breaks. During apoptosis, proteins such as caspase-3 and -7, cleave the PARP to yield an 85 kDa and a 25 kDa fragment. The nuclear localization and extent of apoptosis was determined using nuclear PARP cleavage assay and western blotting was used to determine the relative cellular concentrations of PARP, PAR, and yH2AX for various treatments on all the cell lines. Briefly, 105 cells/well were seeded in a 6 well plate on sterile coverslips for 24 hours before adding the drugs. The cells were incubated with the drugs for either 4 hr s after which they were irradiated. The cells thus treated were incubated at 37° C. for 1 hour before fixing them for further analysis.
(§3) Nuclear PARP Cleavage assay using confocal microscopy: The cells were fixed with 1% formalin and kept at 37° C. for 15 min. The coverslips were given three PBS washings (3 min each) until the cells were free of fixing agent. The cells were rehydrated using PBS with 0.5% tween 80 for 30 min, washed with buffer and incubated with Anti-PARP Cleavage Site (214/215) specific antibody, FITC Conjugate (Life technologies, NY, Cat #44-699) for 1 hour. This antibody specifically recognizes the 85 kDa fragment of cleaved PARP and can be used as a marker for detecting apoptotic cells. The coverslips were washed twice and were mounted onto the glass slide using and the edges were sealed using nail polish. The images were taken using an Olympus FV1000, multi-photon confocal microscope (Olympus America, Inc., Central Valley, Calif.). The excitation filters used for imaging cleaved PARP (FITC) and DAPI were Ex-488, 405 respectively. The emission filters were set at 530, 458 nm for FITC and DAPI respectively. All the images were captured with a 60× objective. […] Statistical significance was analyzed using two way ANOVA and Dunnet's multiple comparison tests in Graph Pad Prism.

PC3 cells = assay: Nuclear PARP cleavage assay by confocal microscopy; format: cell-based, human; conditions: PC3, DAPI
Excerpt: as §1, §2, §3

FKO1 cells = assay: Nuclear PARP cleavage assay by confocal microscopy; format: cell-based, mouse; conditions: FKO1, DAPI
Excerpt: as §1
Nuclear localization and early DNA damage determination: To assess the early DNA Damage and PARP inhibition pathway damage, including PARP, PARylation, PARP cleavage and yH2AX in the cell lines to various treatment conditions, the prostate cancer cell lines were seeded at 100,000 cells, exposed to 20 μM Olaparib/NanoOlaparib, with and without radiation for both immunoflorescence (confocal) and western blotting assays. […] The nuclear localization and extent of apoptosis was determined using nuclear PARP cleavage assay and western blotting was used to determine the relative cellular concentrations of PARP, PAR, and yH2AX for various treatments on all the cell lines. […]
Nuclear PARP Cleavage assay using confocal microscopy: The cells were fixed with 1% formalin and kept at 37° C. for 15 min. […] Statistical significance was analyzed using two way ANOVA and Dunnet's multiple comparison tests in Graph Pad Prism.

FKO1 = assay: Delayed viability assay after radiosensitization (modified clonogenic assay); format: cell-based, mouse
Description: (§4) In vitro characterization of NanoOlaparib: For in vitro studies we used PTEN deficient human prostate cancer cell lines PC3 (ATCC), LNCaP (ATCC) and mouse cell line FKO1. […] Briefly, a complete media was formulated by adding 10% Fetal Bovine Serum from HyClone (FBS) to F12-k (PC3), RPMI (LNCaP) and DMEM supplemented with growth factors such as Bovine Pituitary Extract, (Life Technologies cat #: 13028014), final conc. 25ug/ml, Insulin, (Sigma Aldrich Cat#:16634-50 mg), final conc. 5ug/ml, EGF (Life Technologies Cat#:PHG0311), final conc 6 ng/ml (FKO1). The FKO1 cells were grown on collagen-coated plates (VWR Cat#: 47743-656). CellTiter-Glo® luminescent cell viability reagent was ordered from Promega, CA Cat # G7570. Clonogenic assay kit was bought from BioPioneer, CA, Cat # CODE: CA-001.
as §1
(§5) Delayed viability assay after radiosensitization: Based on several studies, we modified the general clonogenic assay protocol to determine the long term effects of radio-sensitization with olaparib and NanoOlaparib (42, 43). The percent cell viability was determined using the modified clonogenic assay at 2 Gy and 4 Gy doses. Irradiation was carried out in prostate cancer cell lines, LNCaP PC3 and FKO1 as described above. […] The cell density was determined using automated cell counter and 10,000 and 20,000 cells from each treatment group was calculated and seeded in fresh 6 well plates. […] The stain was then dissolved in acetic acid to quantify the effect of Olaparib and NanoOlaparib treatments for all the cell lines.

PC3 [1] = assay: as above; format: cell-based, human
Description: as §4, with “Clonogenic assay kit was bought from BioPioneer, CA, Cat # CODE: CA-001.” left out
as §5, with “doses.” for “doses. Irradiation was carried out in prostate cancer cell lines, LNCaP PC3 and FKO1 as described above.”

PC3 [2] = assay: Synergism with irradiation, combination index by CalcuSyn; format: cell-based, human; conditions: PC3, 20 μM with irradiation
Description: Determination of Synergism using CalcuSyn: The fraction of cells affected (Fa) in response to Olaparib and Nanoolaparib treatment was determined as discussed in above sections. The fraction of cells affected by irradiation alone and the combination therapy was determined by the delayed cell viability assay and these values were utilized to perform synergyism analysis. A non-constant ratio combination design as formulated by CalcuSyn (Biosoft) based on the Chou-Talalay isobologram equation was used to calculate the Combination index (44). All the cells were exposed to 20 μM Olaparib or NanoOlaparib with increasing doses of Irradiation. The CI values were generated from isobolograms. All assays were performed in duplicates. Bars represent the Combination index (CI) of Olaparib and Nanoolaparib on LNCaP, PC3 and FKO1 in combinations with irradiation. The CI values generated for all the treatment groups are reported in the bar graphs are derived from duplicate experiments. The extent of synergism is postulated as indicated by the Chou-Talalay method.

[3] = HPLC analysis of encapsulated Olaparib (loading efficiency); format: physicochemical; conditions: across the batches
Description: HPLC analysis: The concentration of Olaparib encapsulated was determined using HPLC. The mobile phase was optimized to be methanol: water (64:36) run on a reverse phase C18 column (SUPELCO™), and the Olaparib was detected at 207 nm. All the doses used in the following studies were derived from the standard curve obtained using a working range of serially diluted Olaparib solutions in mobile phases as described above. The loading efficiency across the batches was around 80-90%.

## O=C(c1cc(Cc2n[nH]c(=O)c3ccccc23)ccc1F)N1CCN(C(=O)C2CC2)CC1 [Olaparib, 4-(3-(1-(cyclopropanecarbonyl)piperazine-4-carbonyl)-4-fluorobenzyl)phthalazin-1(2H)-one]
LNCaP cells; 1 hr post irradiation
  location of cleaved PARP: predominantly found in the perinuclear region
LNCaP cells; DAPI, 20 μM
  increase in nuclear area: 3 fold
LNCaP cells; no irradiation, 20 μM
  increase in cleaved PARP upon monotherapy: 20 fold
PC3 cells
  change in nuclear size: No significant change
FKO1 cells
  change in nuclear size: No significant change
FKO1; FKO1, 20 uM combined with 4 Gy radiation
  cell kill: 82%
FKO1; FKO1, 20 uM with 2 Gy
  cell death: 68%
FKO1; FKO1, 20 uM, no irradiation
  cell death, monotherapy: 53%
PC3 [1]; PC3, 20 uM with 2 Gy
  cell death: 80%
PC3 [1]; PC3, 20 uM, no irradiation
  cell death, monotherapy: 78%
PC3 [2]
  combinatorial effect of drug and irradiation (CI): additive effect
[3]
  loading efficiency: 80-90%

— US10111871B2, “Nanoparticle drug delivery system and method of treating cancer and neurotrauma” (Northeastern University, priority 2013, dated 2018)
